Experimental findings from patent US20230357248A1, “PYRROLOPYRIMIDINE COMPOUND AS BTK INHIBITOR AND USE THEREOF” (MEDSHINE DISCOVERY INC., priority 2019, published 2023) are described below.

Data set [1] in a line: Plasma protein binding (PPB) assay, C. The data set is classed as in vitro ADME. The note with it: cynomolgus monkey, dialysis 4 hr 37° C. The method, then: (§1) Assay procedure: 995 μL of blank plasma of various genera were weighed, and 5 μL of assay compound working solution (400 μM) or warfarin working solution (400 μM) was added so that the final concentrations of the assay compound and warfarin in plasma sample were each 2 μM. The samples were mixed thoroughly. The final concentration of DMSO (the organic phase) was 0.5%. 50 μL of the plasma samples of the assay compound and warfarin were pipetted to a sample receiving plate (in triplicate), and the corresponding volume of corresponding blank plasma or buffer was added immediately, so that the final volume in each sample well was 100 μL, wherein the volume ratio of plasma:dialysis buffer was 1:1. 500 μL of stop solution was then added to these samples. These samples were used as T0 samples for determination of recovery and stability. […] All samples were subjected to protein precipitation, and then analyzed by LC/MS/MS. Bound rate and recovery rate of protein were calculated using the following formulae: % Unbound=100*F/T, % Bound=100−% Unbound, % Recovery=100*(F+T)/T0 (wherein F is the peak area ratio of the compound in the dialysate after 4 h of dialysis; T is the peak area ratio of the compound in the plasma after 4 h of dialysis; To is the peak area ratio of the compound in the plasma sample at time zero).

The test system of data set [2] is xenograft tumor of human diffuse large B lymphoma TMD8. Briefly: Xenograft tumor model of TMD8 in SCID mouse. The class given is in vivo. The method, then: Xenograft tumor model of TMD8 in SCID mouse:
Assay method: A tumor model of subcutaneously transplanted human diffuse large B lymphoma in mice was established. Tumor cells in logarithmic growth phase were collected, counted, and then resuspended in RPMI1640. The cell suspension was adjusted to a concentration of 4×10^7/mL, and mixed well with Matrigel (1:1). Tumor cells were inoculated subcutaneously on the right back of the mouse with a 1 mL syringe ([…]), 4×10^6 cells/mouse. When the animal tumor reached about 100-300 mm^3, the tumor-bearing mice were randomly divided into 6 groups according to the size of the tumor volume, with 6 mice in each group. On the day of the assay, the animals were administered the corresponding drugs according to the corresponding groups. The first group G1 was set as a negative control group, which was administered 10% NMP/60% PEG400/30% H2O by gavage alone. The second group G2 was set as a positive control group, which was given reference example 1 (compound 005-1) at a dose of 30 mg/kg. The third group G3 was given compound 4 at a dose of 30 mg/kg, once a day, for a total of 15 days.
During the assay, animal weight and tumor size were measured 3 times a week, and clinical symptoms of animals were observed and recorded every day. Each dosing was referenced to the most recent animal weight.
For tumor measurement, length (a) and width (b) were measured with digital vernier calipers, and the calculation formula for tumor volume (TV) was: TV=a×b^2/2.

A further data set concerns the target BTK^C481S (Homo sapiens (Human), UniProt Q06187, C481S). The experiment in a line: BTK enzyme activity assay. The class given is biochemical. The note with it: 200 μM ATP; 33P-ATP, filter-binding method. As for the experimental part: The specific assay process of BTK enzyme activity assay is as follows: Buffer: 20 mM 2-[4-(2-hydroxyethyl)-1-piperazinyl]ethanesulfonic acid (Hepes) (pH 7.5), 10 mM magnesium chloride, 1 mM ethylenebis(oxyethylenenitrilo)tetraacetic acid (EGTA), 0.02% polyoxyethylene dodecyl ether (Brij35), 0.02 mg/mL BSA, 0.1 mM sodium vanadate (Na3VO4), 2 mM dithiothreitol (DTT), 1% DMSO, 200 μM adenosine triphosphate (ATP). • 1. The substrate was prepared in freshly prepared reaction buffer; • 2. The required cofactor was added to the above-mentioned substrate solution; • 3. The kinase BTK^C481S was added to the above-mentioned substrate solution and mixed well; • 4. The compound dissolved in DMSO was added to the kinase reaction mixture by Echo550 (Acoustic technology; nanoliter range), and the mixture was incubated at room temperature for 20 minutes; • 5. ^33P-ATP (specific radioactivity of 10 μCi/μL) was added to the reaction mixture to initiate the reaction; • 6. The mixture was incubated at room temperature for 2 hours; • 7. The radioactivity was detected by filter-binding method; • 8. Kinase activity data represented the percentage of remaining kinase activity in the assay sample compared to the vehicle (dimethyl sulfoxide) reaction.

Data set [3] can be described thus: Pharmacokinetic evaluation in CD-1 mouse (intravenous). The class given is in vivo. The following applies: male, plasma, IV 0.21 mg/kg. The method, then: Assay purpose: To assay the pharmacokinetics of the compound in CD-1 mouse (intravenous)
Pharmacokinetic study of oral and intravenously injected compound 4 and reference example 1 (compound 005-1) in CD-1 mouse
Compound 4 and reference example 1 were mixed with the solvent (10% NMP/60% PEG400/30% H2O). The mixture was vortexed and sonicated to prepare a clarified solution of 0.1 mg/mL. 7- to 10-week old CD-1 male mice were selected, and the candidate compound solution was administered intravenously at a dose of 0.21 mg/kg.
Whole blood was collected for a certain period of time to prepare the plasma. Drug concentration was analyzed by LC-MS/MS, and pharmacokinetic parameters were calculated by Phoenix WinNonlin software (Pharsight, USA).

A short description of data set [4]: Plasma protein binding (PPB) assay, R. The note with it: rat, dialysis 4 hr 37° C. The class given is in vitro ADME. The method, then:
as §1

Data set [5] in a line: Plasma protein binding (PPB) assay, H. The class given is in vitro ADME. The note with it: human, dialysis 4 hr 37° C. The method, then:
as §1

Data set [6] in a line: Plasma protein binding (PPB) assay, D. The following applies: dog, dialysis 4 hr 37° C. The class given is in vitro ADME. The method, then: as §1
Data set [7] is described as follows: Pharmacokinetic evaluation in SD rat (oral). The class given is in vivo. The note with it: about 2 mg/kg.
[8] abbreviates: TMD8 xenograft in SCID mouse, 30 mg/kg PO, QD × 15, 14th day.

The structures appear in SMILES notation.

Sequence of BTK^C481S (Q06187 whole entry C481S): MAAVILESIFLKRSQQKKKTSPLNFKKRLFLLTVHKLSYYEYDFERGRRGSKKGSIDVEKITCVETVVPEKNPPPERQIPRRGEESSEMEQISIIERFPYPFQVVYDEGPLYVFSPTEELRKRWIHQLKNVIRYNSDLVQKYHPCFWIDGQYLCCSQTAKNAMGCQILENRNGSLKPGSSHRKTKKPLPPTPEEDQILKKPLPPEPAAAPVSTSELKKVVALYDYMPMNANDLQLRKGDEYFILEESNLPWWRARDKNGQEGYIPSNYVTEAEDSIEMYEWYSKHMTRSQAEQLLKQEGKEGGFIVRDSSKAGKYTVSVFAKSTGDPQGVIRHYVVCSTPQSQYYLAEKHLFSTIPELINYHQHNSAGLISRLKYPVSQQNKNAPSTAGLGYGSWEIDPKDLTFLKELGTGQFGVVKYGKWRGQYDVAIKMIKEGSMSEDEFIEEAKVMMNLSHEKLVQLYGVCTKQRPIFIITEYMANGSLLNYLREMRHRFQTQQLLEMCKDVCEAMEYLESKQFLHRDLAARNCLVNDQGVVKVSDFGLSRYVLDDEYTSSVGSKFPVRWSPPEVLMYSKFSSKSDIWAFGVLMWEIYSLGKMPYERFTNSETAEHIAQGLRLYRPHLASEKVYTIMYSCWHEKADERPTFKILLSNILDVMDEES

As to `CO[C@@H]1C[C@@H](CO)OC[C@@H]1Nc1ncnc2[nH]cc(C(=O)c3ccc(Oc4ccccc4)cc3Cl)c12` [Compound 4], the fraction unbound at 4 h, 2 μM in data set [1] was found to be 0.001. Further, in data set [2] (30 mg/kg once a day), the “inhibitory effect on xenograft tumor of human diffuse large B lymphoma TMD8 in mouse (in words)” value is recorded as “a certain inhibitory effect”. Besides, the “relative tumor proliferation rate T/C” value in data set [2] (5th day, 30 mg/kg once a day) is on record as 66.33%. Also, in data set [2] (14th day, 30 mg/kg once a day), the “relative tumor proliferation rate” value is 21.53% and the “tumor volume inhibition rate TGI (%)” value came to 79.04%. Also, in data set [2] (setting [8]), the “Tumor volume inhibition rate TGI” value was 79.04% and the “relative tumor proliferation rate T/C” value came out at 21.53%. At BTK^C481S, this molecule registered an IC50 of 7.3 nM. In data set [3], this molecule came in with an AUC(0-inf) of 3.11 µM·h, a C0 of 562 nM, a Vd of 0.85 L/kg and a clearance of 2.12 mL/min/kg. In addition, the half-life in data set [3] is 4.65 h. The same molecule registered an AUC in data set [3] (AUCu = AUC0-inf * Unbound PPB (Mouse)) of 0.0124 µM·h. The molecule further registered a fraction unbound at 4 h, 2 μM in data set [4] of 0.002. This molecule also came in with a fraction unbound at 4 h, 2 μM in data set [5] of 0.004. In data set [6], this molecule yielded a fraction unbound at 4 h, 2 μM of 0.001. In addition, in data set [7] (AUCu = AUC0-inf * Unbound PPB (in vivo assay of PPB in rat)), the AUCu came out at 0.0078 µM·h. Besides, in data set [7] (male, plasma), the area under the curve AUC(0-inf) was 3.89 µM·h, the Cmax was 587 nM, the bioavailability was found to be 57.3% and the half-life is 2.33 h.

A word on the fraction unbound: it is the share of the substance not bound to proteins or other matrix. Broadly, the IC50 is the concentration at which inhibition is half-maximal. For orientation: AUC(0-inf) means the area under the concentration-time curve extrapolated to infinity. A high value points to high exposure. One may read the Vd as a proportionality between amount in the body and measured concentration, not a real space. Low readings indicate little distribution into tissue, high ones wide distribution into tissue. The clearance is the volume of plasma or blood freed of the substance per unit of time. A higher clearance goes with a high capacity for elimination. The term half-life denotes the time needed for the level to fall by half in the phase considered. One may read the AUC as concentration integrated over time. Read a high AUC as high exposure. The term Cmax denotes the highest concentration seen after dosing. By bioavailability is commonly meant the share of a dose that reaches the circulation, judged against a reference dose that is usually intravenous.
